Structures can show the parent of a compound that is named as a salt.
How the values were obtained:
[1] = tested on: mouse colon cancer, Colon26; test: Antitumor effect against tumor-bearing mouse (1); assay type: in vivo; details: once intravenously, 7th day after initiation of administration, average ± SD, volume on day of initiation = 1.0
Text: Tumor of mouse colon cancer, Colon26, maintained by serial subcutaneous subculture in mice, was minced into about 2-mm square blocks, and the blocks were transplanted subcutaneously on the dorsal part of a mouse using a trocar. On the 7th day after tumor transplantation, the compound of Example 1 (indicated as Compound 1 in Table 2) and the compound of Example 2 (indicated as Compound 2 in Table 2), respectively dissolved in physiological saline, and gemcitabine hydrochloride as a control drug dissolved in a 5% glucose injection solution were respectively administered once intravenously at the doses indicated in Table 2. The tumor volumes on the day of initiation of administration and on the 7th day after the initiation of administration were calculated by the following equation, and the relative tumor volumes on the day of initiation of administration and on the 7th day after the initiation of administration were determined.

[2] = tested on: mouse colon cancer, Colon26; test: Antitumor effect against tumor-bearing mouse (2); assay type: in vivo; details: once intravenously, 8th day after initiation of administration, average ± SD, volume on day of initiation = 1.0
Text: Tumor of mouse colon cancer, Colon26, maintained by serial subcutaneous subculture in mice, was minced into about 2-mm square blocks, and the blocks were transplanted subcutaneously on the dorsal part of a mouse. On the 7th day after tumor transplantation, the compound of Example 3 (indicated as Compound 3 in Table 3) and the compound of Example 4 (indicated as Compound 4 in Table 3), respectively dissolved in physiological saline, and gemcitabine hydrochloride as a control drug dissolved in a 5% glucose injection solution were respectively administered once intravenously at the doses indicated in Table 3. The tumor volumes on the day of initiation of administration and on the 8th day after the initiation of administration were calculated in the same manner as in Test Example 3, and the relative tumor volumes on the day of initiation of administration and on the 8th day after the initiation of administration were determined.

[3] = dose 200 mg/kg in terms of gemcitabine hydrochloride

Nc1ccn([C@@H]2O[C@H](CO)[C@@H](O)C2(F)F)c(=O)n1 [Control drug, gemcitabine hydrochloride]
Relative tumor volume ([1]; dose 100 mg/kg in terms of gemcitabine hydrochloride): 3.9 ± 0.5
Relative tumor volume [1, 3]: 3.4 ± 0.6
Relative tumor volume ([2]; dose 40 mg/kg in terms of gemcitabine hydrochloride): 5.3 ± 1.1
Relative tumor volume [2, 3]: 4.8 ± 1.7

Reference: patent US8334364B2, “High-molecular weight derivative of nucleic acid antimetabolite” (priority 2006, dated 2012)
